Experimental data published in patent US9301923B2, “Lipids, lipid compositions, and methods of using them” (NOVARTIS AG, priority 2009, dated 2016).

Columns and labels:
[1] = tested on: PLK-1 mRNA in Hep3B tumors; test: Hep3B tumor study, PLK-1 mRNA KD in tumor tissue; format: in vivo, human; conditions: Hep3B tumor, mouse, i.v., LNP composition as in the source
Excerpt: Formulated siRNAs are made up of double stranded siRNA sequences specific to a target mRNA sequence, and are in the form of lipid nucleotid particles (LNPs) containing cationic lipids, stealth lipids and neutral lipids, as provided in the Examples below. The siRNA construct for use in targeting the liver is specific to Factor VII. The siRNA construct for use in targeting tumors is specific to PLK1-424, which is published by Judge et al., See, J Clin Invest. 2009 March; 119(3):661-73; doi: 10.1172/JCI37515). • 1. FVII siRNA duplex sequence
Hep3B tumors are established in female nude mice by sc injection of 7×10^6 cells in 100 ul PBS into the left flank. Mice are randomized into treatment groups 10-14 days after seeding as tumors reached an average size of 100 mm^3. siRNA formulated LNP formulations are administered at various dose levels intravenously via the lateral tail vein calculated on a mg siRNAs/kg basis according to individual animal weights (10 ml/kg injection volume). Mice are euthanized by CO2 inhalation at various time points and the tumors are harvested for mRNA quantitation. Lipids with a wide range of pKa (5.3-6.6) are used in the LNP formulations. Tumors are measured in 2 dimensions (width×length) to assess tumor growth using digital calipers. Tumor volume is calculated using the equation [a×b×b/2], where a equals the largest diameter and b equals the smallest diameter.
About 30-50 mg tumor tissue is homogenized in tissue lysis buffer in a Qiagen homogenizer followed by centrifugation to clarify lysates. Total RNA is isolated using RNeasy isolation kit (catalog number 74106) according to the manufacture's protocol. PLK-1 mRNA is analyzed by quantitative PCR and normalized to human GAPDH. Applied Biosystems human PLK-1 gene expression assay Hs00983229_m1 and human GAPDH endogenous control cat number 4326317E are used for mRNA detection.
The pKa in all tables refers to the pKa of the cationic lipid. Where multiple doses are indicated (e.g., 3×5), the first number indicates the number of doses given and the second number indicates the amount per dose in mg siRNA (biologically active agent) per kg mouse. In general the multiple doses are administered at 24 hour intervals, and tissues for mRNA quantitation are harvested 24 hours after the last dose.

Factor VII = Factor VII activity assay, in vivo liver delivery of FVII siRNA LNP; set-up: species or system mouse; conditions: ~48 h
In short: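 Female CD-1 mice (~25 g) given a single i.v. tail-vein dose of FVII siRNA in LNPs (cationic, stealth, neutral lipids), dosed as mg siRNA/kg. Plasma collected ~48 h post-injection; FVII activity read against a standard curve from pooled vehicle-control plasma.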

[2] = Particle size and PDI by dynamic light scattering (Malvern Zetasizer); format: physicochemical
In short: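 Nanoparticles diluted in PBS to a count rate of about 200-400 kcts and measured by dynamic light scattering; size given as intensity-weighted average diameter, with polydispersity index from the same measurement.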

[3] = pKa of the lipid by TNS fluorescence; format: physicochemical; conditions: pKa
In short: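 Lipid dissolved in ethanol (2 mM stock) and measured with TNS across eight buffers of differing pH, in water at standard temperature and pressure. Normalized fluorescence intensity plotted against pH and points joined by a smooth line to derive pKa, precise to about 0.2 units.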

[4] = dose 1 mg/kg siRNA i.v., lipid/no neutral lipid/CHOL/GM-020 NOF 60/0/36/4, N/P 3
[5] = LNP formulation with PLK1 siRNA, helper, neutral and stealth lipid, molar ratio and N/P as in the table
[6] = lipid/no neutral lipid/CHOL/GM-020 NOF 60/0/36/4, N/P 3
[7] = lipid/no neutral lipid/CHOL/AVANTI 880150P 50/0/46/4, N/P 3.43

Structure (SMILES)	Final size (nm) [2, 5]	pKa [3]	PLK1 inhibition % ([1]; 1 × 1 mg siRNA/kg)	further results
CCCCC/C=C\C/C=C\CCCCCCCCOCC(CN1CCCCC1)OCCCOCCCO[C@H]1CC[C@@]2(C)C(=CC[C@H]3[C@@H]4CC[C@H]([C@H](C)CCCC(C)C)[C@@]4(C)CC[C@@H]32)C1 (stereo partly drawn) [E0077]	120.8 nm	5.79		PLK1 inhibition % ([1]; 1 × 5 mg siRNA/kg): 77%; FVII inhib % (Factor VII; [4]): 26.8%; Final size (nm) [2, 6]: 109.8 nm; PDI [2, 6]: 0.127
CCCCC/C=C\C/C=C\CCCCCCCCOCC(CN1CCC(C)(C)C1)OCCOCCO[C@H]1CC[C@@]2(C)C(=CC[C@H]3[C@@H]4CC[C@H]([C@H](C)CCCC(C)C)[C@@]4(C)CC[C@@H]32)C1 (stereo partly drawn) [E0026]	105.8 nm			PLK1 inhibition % ([1]; 1 × 5 mg siRNA/kg): 75%; FVII inhib % (Factor VII; dose 3 mg/kg siRNA i.v., lipid/no neutral lipid/CHOL/AVANTI 880150P 50/0/46/4, N/P 3.43): 95.1%; Final size (nm) [2, 7]: 87 nm; PDI [2, 7]: 0.23
CCCCC/C=C\C/C=C\CCCCCCCCOCC(CN1CCC(OC)C1)OCCCOCCCO[C@H]1CC[C@@]2(C)C(=CC[C@H]3[C@@H]4CC[C@H]([C@H](C)CCCC(C)C)[C@@]4(C)CC[C@@H]32)C1 (stereo partly drawn) [E0088]	146.2 nm	5.79		PLK1 inhibition % ([1]; 1 × 5 mg siRNA/kg): 71%; FVII inhib % (Factor VII; [4]): 50.8%; Final size (nm) [2, 6]: 110.7 nm; PDI [2, 6]: 0.080
CCCCCCCC/C=C\CCCCCCCCOCC(CN1CCOCC1)OCCOC(=O)CO[C@H]1CC[C@@]2(C)C(=CCC3[C@@H]4CC[C@H]([C@H](C)CCCC(C)C)[C@@]4(C)CC[C@@H]32)C1 (stereo partly drawn) [E0128]	83.47 nm	5.01	23%	
CCCCCCCC/C=C\CCCCCCCCOCC(CN1CCOCC1)OCCOCCOC(=O)CCC(=O)O[C@H]1CC[C@@]2(C)C(=CC[C@H]3[C@@H]4CC[C@H]([C@H](C)CCCC(C)C)[C@@]4(C)CC[C@@H]32)C1 (stereo partly drawn) [E0152]	121.3 nm	5.38	18%	
CCCCCCCC/C=C\CCCCCCCCOCC(CN1CCCCC1)OCCOC(=O)CCCC(=O)O[C@H]1CC[C@@]2(C)C(=CC[C@H]3[C@@H]4CC[C@H]([C@H](C)CCCC(C)C)[C@@]4(C)CC[C@@H]32)C1 (stereo partly drawn) [E0151]	103.8 nm	6.06	25%	PLK1 inhibition % ([1]; 1 × 0.1 mg siRNA/kg): 7%
CCCCCCCC/C=C\CCCCCCCCOCC(CN1CC[C@@H]2CCCC[C@H]2C1)OCCOCCO[C@H]1CC[C@@]2(C)C(=CC[C@H]3[C@@H]4CC[C@H]([C@H](C)CCCC(C)C)[C@@]4(C)CC[C@@H]32)C1 (stereo partly drawn) [E0120]	87 nm	5.48	28%	
CCCCC/C=C\C/C=C\CCCCCCCCOCC(CN1CCOCC1)OCCCOCCCO[C@H]1CC[C@@]2(C)C(=CC[C@H]3[C@@H]4CC[C@H]([C@H](C)CCCC(C)C)[C@@]4(C)CC[C@@H]32)C1 (stereo partly drawn) [E0093]	82.42 nm	4.85		PLK1 inhibition % ([1]; 1 × 10 mg siRNA/kg): 2%
CCCCC/C=C\C/C=C\CCCCCCCCOCC(CN1CCCCC1)OCCCOC(=O)CCC(=O)O[C@H]1CC[C@@]2(C)C(=CC[C@H]3[C@@H]4CC[C@H]([C@H](C)CCCC(C)C)[C@@]4(C)CC[C@@H]32)C1 (stereo partly drawn) [E0179]	114.6 nm	5.95	53%	
CCCCCCCC/C=C\CCCCCCCCOCOCC(CN1CCCCC1)OCCCOC(=O)CCC(=O)O[C@H]1CC[C@@]2(C)C(=CC[C@H]3[C@@H]4CC[C@H]([C@H](C)CCCC(C)C)[C@@]4(C)CC[C@@H]32)C1 (stereo partly drawn) [E0160]	100.8 nm	6.05	38%	
CCCCCCCC/C=C\CCCCCCCCOCC(CN1CCOCC1)OCCOCC(=O)OC1CC[C@@]2(C)C(=CCC3C2CC[C@@]2(C)C3CC[C@@H]2[C@H](C)CCCC(C)C)C1 (stereo partly drawn) [E0167]	86.57 nm	5.21	23%	
